Reference: the CheMixHub viscosity set
Several values for one entry are separate records, joined by “and”; a condition that tells them apart may be missing. Equal values may be shown once. ± gives the uncertainty stated by the source.

Test: xn = mol fraction of the nth substance listed

CCCCCCC + CCCO
Conditions	viscosity
293.15 K, 101 kPa, x1 = 0.102	1.641 ± 0.019 mPa·s
293.15 K, 101 kPa, x1 = 0.2018	1.291 ± 0.015 mPa·s
293.15 K, 101 kPa, x1 = 0.299	1.052 ± 0.012 mPa·s
293.15 K, 101 kPa, x1 = 0.4005	0.8426 ± 0.01 mPa·s
293.15 K, 101 kPa, x1 = 0.5017	0.6995 ± 0.0084 mPa·s
293.15 K, 101 kPa, x1 = 0.6033	0.5899 ± 0.0072 mPa·s
293.15 K, 101 kPa, x1 = 0.7025	0.5126 ± 0.0064 mPa·s
293.15 K, 101 kPa, x1 = 0.801	0.4793 ± 0.0061 mPa·s
293.15 K, 101 kPa, x1 = 0.8918	0.4475 ± 0.0057 mPa·s
298.15 K, 100 kPa, x1 = 0.0569	1.654 ± 0.022 mPa·s
298.15 K, 100 kPa, x1 = 0.1025	1.453 ± 0.019 mPa·s
298.15 K, 100 kPa, x1 = 0.1996	1.138 ± 0.015 mPa·s
298.15 K, 100 kPa, x1 = 0.3052	0.9066 ± 0.012 mPa·s
298.15 K, 100 kPa, x1 = 0.4045	0.75 ± 0.0098 mPa·s
298.15 K, 100 kPa, x1 = 0.5038	0.6265 ± 0.0082 mPa·s
298.15 K, 100 kPa, x1 = 0.6039	0.5366 ± 0.0071 mPa·s
298.15 K, 100 kPa, x1 = 0.7066	0.4713 ± 0.0062 mPa·s
298.15 K, 100 kPa, x1 = 0.8001	0.4307 ± 0.0057 mPa·s
298.15 K, 100 kPa, x1 = 0.8488	0.4168 ± 0.0056 mPa·s
298.15 K, 100 kPa, x1 = 0.9551	0.4008 ± 0.0054 mPa·s
298.15 K, 100 kPa, x2 = 0.1648	0.4406 ± 0.012 mPa·s
298.15 K, 100 kPa, x2 = 0.3402	0.5464 ± 0.015 mPa·s
298.15 K, 100 kPa, x2 = 0.5002	0.7014 ± 0.019 mPa·s
298.15 K, 100 kPa, x2 = 0.6602	0.9498 ± 0.026 mPa·s
298.15 K, 100 kPa, x2 = 0.8383	1.294 ± 0.035 mPa·s
298.15 K, 101 kPa, x1 = 0.0164	1.804 ± 0.011 mPa·s
298.15 K, 101 kPa, x1 = 0.102	1.477 ± 0.017 mPa·s
298.15 K, 101 kPa, x1 = 0.2018	1.166 ± 0.014 mPa·s
298.15 K, 101 kPa, x1 = 0.299	0.9499 ± 0.011 mPa·s
298.15 K, 101 kPa, x1 = 0.4005	0.7687 ± 0.0092 mPa·s
298.15 K, 101 kPa, x1 = 0.5017	0.6453 ± 0.0078 mPa·s
298.15 K, 101 kPa, x1 = 0.6033	0.5511 ± 0.0068 mPa·s
298.15 K, 101 kPa, x1 = 0.7025	0.4886 ± 0.0061 mPa·s
298.15 K, 101 kPa, x1 = 0.801	0.4419 ± 0.0056 mPa·s
298.15 K, 101 kPa, x1 = 0.8918	0.4174 ± 0.0054 mPa·s
298.15 K, 101 kPa, x2 = 0.0584	0.39 ± 0.003 mPa·s
298.15 K, 101 kPa, x2 = 0.1192	0.408 ± 0.004 mPa·s
298.15 K, 101 kPa, x2 = 0.1482	0.416 ± 0.004 mPa·s
298.15 K, 101 kPa, x2 = 0.2647	0.454 ± 0.004 mPa·s
298.15 K, 101 kPa, x2 = 0.3436	0.489 ± 0.004 mPa·s
298.15 K, 101 kPa, x2 = 0.4121	0.53 ± 0.004 mPa·s
298.15 K, 101 kPa, x2 = 0.5026	0.606 ± 0.005 mPa·s
298.15 K, 101 kPa, x2 = 0.5659	0.679 ± 0.005 mPa·s
298.15 K, 101 kPa, x2 = 0.654	0.811 ± 0.006 mPa·s
298.15 K, 101 kPa, x2 = 0.6877	0.872 ± 0.006 mPa·s
298.15 K, 101 kPa, x2 = 0.7447	0.994 ± 0.007 mPa·s
298.15 K, 101 kPa, x2 = 0.8298	1.222 ± 0.008 mPa·s
298.15 K, 101.33 kPa, x1 = 0.0127	1.873 ± 0.014 mPa·s
298.15 K, 101.33 kPa, x2 = 0.0468	0.393 ± 0.0043 mPa·s
298.15 K, 101.33 kPa, x2 = 0.0919	0.409 ± 0.006 mPa·s
298.15 K, 101.33 kPa, x2 = 0.0989	0.403 ± 0.0044 mPa·s
298.15 K, 101.33 kPa, x2 = 0.2079	0.4331 ± 0.0045 mPa·s
298.15 K, 101.33 kPa, x2 = 0.2269	0.46 ± 0.006 mPa·s
298.15 K, 101.33 kPa, x2 = 0.2621	0.454 ± 0.0046 mPa·s
298.15 K, 101.33 kPa, x2 = 0.34	0.52 ± 0.007 mPa·s
298.15 K, 101.33 kPa, x2 = 0.362	0.4992 ± 0.0048 mPa·s
298.15 K, 101.33 kPa, x2 = 0.4038	0.571 ± 0.008 mPa·s
298.15 K, 101.33 kPa, x2 = 0.4569	0.576 ± 0.0053 mPa·s
298.15 K, 101.33 kPa, x2 = 0.521	0.682 ± 0.009 mPa·s
298.15 K, 101.33 kPa, x2 = 0.5667	0.69 ± 0.0059 mPa·s
298.15 K, 101.33 kPa, x2 = 0.598	0.776 ± 0.01 mPa·s
298.15 K, 101.33 kPa, x2 = 0.6616	0.876 ± 0.011 mPa·s
298.15 K, 101.33 kPa, x2 = 0.6636	0.832 ± 0.0068 mPa·s
298.15 K, 101.33 kPa, x2 = 0.7478	0.999 ± 0.0078 mPa·s
298.15 K, 101.33 kPa, x2 = 0.7849	1.154 ± 0.015 mPa·s
298.15 K, 101.33 kPa, x2 = 0.8202	1.187 ± 0.0092 mPa·s
298.15 K, 101.33 kPa, x2 = 0.879	1.447 ± 0.019 mPa·s
298.15 K, 101.33 kPa, x2 = 0.9458	1.659 ± 0.013 mPa·s
298.15 K, 101.33 kPa, x2 = 0.967	1.811 ± 0.023 mPa·s
303.15 K, 101 kPa, x1 = 0.0164	1.609 ± 0.01 mPa·s
303.15 K, 101 kPa, x1 = 0.102	1.319 ± 0.015 mPa·s
303.15 K, 101 kPa, x1 = 0.2018	1.047 ± 0.012 mPa·s
303.15 K, 101 kPa, x1 = 0.299	0.8669 ± 0.01 mPa·s
303.15 K, 101 kPa, x1 = 0.4005	0.7025 ± 0.0084 mPa·s
303.15 K, 101 kPa, x1 = 0.5017	0.5949 ± 0.0072 mPa·s
303.15 K, 101 kPa, x1 = 0.6033	0.5056 ± 0.0062 mPa·s
303.15 K, 101 kPa, x1 = 0.7025	0.4543 ± 0.0057 mPa·s
303.15 K, 101 kPa, x1 = 0.801	0.4254 ± 0.0054 mPa·s
303.15 K, 101 kPa, x1 = 0.8918	0.3943 ± 0.0051 mPa·s
303.15 K, 101 kPa, x2 = 0.0637	0.364 ± 0.003 mPa·s and 0.344 ± 0.003 mPa·s
303.15 K, 101 kPa, x2 = 0.1192	0.374 ± 0.003 mPa·s
303.15 K, 101 kPa, x2 = 0.2374	0.415 ± 0.004 mPa·s
303.15 K, 101 kPa, x2 = 0.3198	0.444 ± 0.004 mPa·s
303.15 K, 101 kPa, x2 = 0.4121	0.496 ± 0.004 mPa·s
303.15 K, 101 kPa, x2 = 0.5026	0.569 ± 0.004 mPa·s
303.15 K, 101 kPa, x2 = 0.6029	0.674 ± 0.005 mPa·s
303.15 K, 101 kPa, x2 = 0.6539	0.742 ± 0.005 mPa·s
303.15 K, 101 kPa, x2 = 0.6876	0.785 ± 0.006 mPa·s
303.15 K, 101 kPa, x2 = 0.7445	0.889 ± 0.006 mPa·s
303.15 K, 101 kPa, x2 = 0.7867	0.975 ± 0.007 mPa·s
303.15 K, 101 kPa, x2 = 0.8298	1.096 ± 0.007 mPa·s
303.15 K, 101 kPa, x2 = 0.884	1.23 ± 0.008 mPa·s
303.15 K, 101 kPa, x2 = 0.9695	1.544 ± 0.01 mPa·s
308.15 K, 101 kPa, x1 = 0.102	1.189 ± 0.014 mPa·s
308.15 K, 101 kPa, x1 = 0.2018	0.9659 ± 0.011 mPa·s
308.15 K, 101 kPa, x1 = 0.299	0.7776 ± 0.0092 mPa·s
308.15 K, 101 kPa, x1 = 0.4005	0.6444 ± 0.0077 mPa·s
308.15 K, 101 kPa, x1 = 0.5017	0.5454 ± 0.0066 mPa·s
308.15 K, 101 kPa, x1 = 0.6033	0.4781 ± 0.0059 mPa·s
308.15 K, 101 kPa, x1 = 0.7025	0.4308 ± 0.0054 mPa·s
308.15 K, 101 kPa, x1 = 0.801	0.3988 ± 0.0051 mPa·s
308.15 K, 101 kPa, x1 = 0.8918	0.3783 ± 0.0049 mPa·s
308.15 K, 101 kPa, x2 = 0.1596	0.36 ± 0.003 mPa·s
308.15 K, 101 kPa, x2 = 0.2647	0.399 ± 0.003 mPa·s
308.15 K, 101 kPa, x2 = 0.3436	0.435 ± 0.004 mPa·s
308.15 K, 101 kPa, x2 = 0.4385	0.489 ± 0.004 mPa·s
308.15 K, 101 kPa, x2 = 0.5026	0.532 ± 0.004 mPa·s
308.15 K, 101 kPa, x2 = 0.5659	0.584 ± 0.004 mPa·s
308.15 K, 101 kPa, x2 = 0.6029	0.619 ± 0.005 mPa·s
308.15 K, 101 kPa, x2 = 0.6877	0.728 ± 0.005 mPa·s
308.15 K, 101 kPa, x2 = 0.7447	0.817 ± 0.006 mPa·s
308.15 K, 101 kPa, x2 = 0.7867	0.909 ± 0.006 mPa·s
308.15 K, 101 kPa, x2 = 0.884	1.158 ± 0.008 mPa·s
308.15 K, 101 kPa, x2 = 0.9695	1.444 ± 0.009 mPa·s
308.15 K, 101.33 kPa, x1 = 0.0127	1.506 ± 0.012 mPa·s
308.15 K, 101.33 kPa, x2 = 0.0468	0.3551 ± 0.0042 mPa·s
308.15 K, 101.33 kPa, x2 = 0.0989	0.36 ± 0.0042 mPa·s
308.15 K, 101.33 kPa, x2 = 0.2079	0.3821 ± 0.0043 mPa·s
308.15 K, 101.33 kPa, x2 = 0.2621	0.4018 ± 0.0044 mPa·s
308.15 K, 101.33 kPa, x2 = 0.362	0.4432 ± 0.0046 mPa·s
308.15 K, 101.33 kPa, x2 = 0.4569	0.492 ± 0.0048 mPa·s
308.15 K, 101.33 kPa, x2 = 0.5667	0.5902 ± 0.0054 mPa·s
308.15 K, 101.33 kPa, x2 = 0.6636	0.7 ± 0.006 mPa·s
308.15 K, 101.33 kPa, x2 = 0.7478	0.8319 ± 0.0069 mPa·s
308.15 K, 101.33 kPa, x2 = 0.8202	0.98 ± 0.0077 mPa·s
308.15 K, 101.33 kPa, x2 = 0.9458	1.347 ± 0.011 mPa·s
